The text below walks through data of patent US6379563B1, “Alkylamines as biofilm deactivation agents” (Albemarle Corporation, priority 2000, dated 2002).

Like-named read-outs stand apart in the source and are kept apart here.

For data set [1] the following is noted: from Bodor, Gabanyi, Wang, JACS 111, 3783 (1989); cited from earlier work.
Data set [2] relates to Pseudomonas aeruginosa (ATCC 15442) biofilms. In words: MBEC test, 24-hour biofilm, one hour biocide challenge.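 For all read-outs here: Peg-grown biofilms exposed to biocide, then regrowth in broth 18 h at 35 °C, turbidity by absorbance at 650 nm, above 0.100 counted as growth.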 In kind it is cell-based. Particulars: for minimum biofilm eradication concentration (MBEC) / MBC: Pseudomonas aeruginosa, ATCC15442, 1 h; for minimum biofilm eradication concentration (MBEC) / MBEC, avg. / MBEC, ppm (first of duplicate runs) / MBEC, ppm (second of duplicate runs) / biofilm deactivation at 200 ppm (regrowth optical density measurements): 24-hour biofilm, 1 hour contact.
Excerpt: The MBEC technique consists of growing identical 24-hour biofilms on 96 pegs arrayed in 12 rows and 8 columns. The biofilms then are challenged with decreasing concentrations of selected antibiotics and/or biocides. After a certain challenge time (generally one hour), the biofilms are placed in 96 individual wells of growth media and ultra-sonicated to deactivate any surviving organisms. After culturing overnight, the wells are checked for turbidity. Clear, transparent wells indicate complete deactivation of the biofilm. Conversely, turbidity (“growth”) indicates lack of complete deactivation of the biofilm.
The minimum biofilm deactivation concentration (MBEC) is defined as the minimum concentration of an agent that completely deactivates biofilm bacteria. […] Unless otherwise indicated, the biofilms used in the examples below consisted of a pure culture of Pseudomonas aeruginosa (ATCC 15442).
Pseudomonas aeruginosa (ATCC 15442) biofilms were prepared on the 96 pegs of the MBEC plate by aerobic incubation in simple salts medium with 0.1% glucose (24 hours, 35° C.). The pegs were rinsed in synthetic water (SW) and then challenged by the biocide for one hour. Following the biocide challenge, the pegs were rinsed twice with SW and then sonicated into Mueller-Hinton broth (225 μL per well). The broth was then incubated for 18 hours at 35° C.

Data set [3] relates to 7-day biofilm formed using P. aeruginosa. In words: MBEC test, 7-day biofilm, one hour biocide challenge. In kind it is cell-based, Pseudomonas aeruginosa. The settings on record: 1 hour contact; for MBEC, avg., Example 4 / MBEC, ppm (first of duplicate runs), Example 4 / MBEC, ppm (second of duplicate runs), Example 4: Example 4, ppm oxidant (as Cl2) or ppm active. From the text: The MBEC technique consists of growing identical 24-hour biofilms on 96 pegs arrayed in 12 rows and 8 columns. The biofilms then are challenged with decreasing concentrations of selected antibiotics and/or biocides. After a certain challenge time (generally one hour), the biofilms are placed in 96 individual wells of growth media and ultra-sonicated to […] any surviving organisms. After culturing overnight, the wells are checked for turbidity. Clear, transparent wells indicate complete deactivation of the biofilm. Conversely, turbidity (“growth”) indicates lack of complete deactivation of the biofilm.
After the 18 hour incubation period, the recovery wells were checked for turbidity. Clear, transparent wells indicated complete deactivation of the biofilm. Conversely, turbidity indicated the lack of complete deactivation of the biofilm. The minimum biofilm deactivation concentration (MBEC) is defined as the minimum concentration of agent which results in complete deactivation of the biofilm. MBEC endpoints were unambiguously determined by absorbance at 650 nm. using UV visible spectroscopy. An absorbance >0.100 was considered a positive indication of growth.
Pseudomonas aeruginosa (ATCC 15442) biofilms were prepared as described in Example I. The 7-day biofilms were prepared by a modification of the above procedure. Each day, spent media was replaced with fresh media and inocula.
Older biofilms offer increased resistance to biocides. Studies were extended to 7-day biofilms formed using P. aeruginosa. The procedure used to form the 7-day biofilm was the same as in Example 1, except that each day, spent media was replaced with fresh media and inocula. This biofilm was then challenged with oxidizing and non-oxidizing biocides.
Another 7-day biofilm was prepared from P. aeruginosa, as in EXAMPLE 3. This biofilm was then challenged with several common oxidizing and non-oxidizing biocides.

Setting [4] is: average of duplicate runs, blends: total amount of components (1:1 ratio), read-out: MBEC, avg.
Setting [5] is: blends: total amount of components (1:1 ratio), read-out: MBEC, ppm (first of duplicate runs).
Setting [6] is: blends: total amount of components (1:1 ratio), read-out: MBEC, ppm (second of duplicate runs).
Setting [7] is: blends: total biocide, read-out: MBEC.
Where [8] appears, read: average of duplicate runs, blends: total amount of components (1:1 ratio).
[9] abbreviates: blends: total amount of components (1:1 ratio).
The mark [10] stands for this setting: Example 3, ppm oxidant (as Cl2) or ppm active.
The mark [11] stands for this setting: read-out: MBEC, avg., 24-hour biofilm, 1 hour contact, average of duplicate runs, blends: total amount of components (1:1 ratio).
Setting [12] is: read-out: MBEC, ppm (second of duplicate runs), 24-hour biofilm, 1 hour contact, blends: total amount of components (1:1 ratio).
Setting [13] is: read-out: MBEC, ppm (first of duplicate runs), 24-hour biofilm, 1 hour contact, blends: total amount of components (1:1 ratio).

On to `CCCCN` [1-Butylamine], for which the logKow experimental in data set [1] is reported as 0.87.

Regarding `CCCCCCCCCCN` [1-Decylamine], the minimum biofilm eradication concentration (MBEC) in data set [2] (setting [4]), in data set [2] (setting [5]), in data set [2] (setting [6]) and in data set [2] (setting [7]) was 200 µg/mL each time.

With `CCCCCCCCCCCCN` [1-Dodecylamine], the minimum biofilm eradication concentration (MBEC) in data set [2] (setting [4]) is 25 µg/mL; in data set [2] (setting [5]), 25 µg/mL; in data set [2] (setting [6]), 25 µg/mL; in data set [2] (setting [7]) it was ~38 µg/mL. Further, the “MBEC on 7-day biofilm” value in data set [3] is given as 75 ppm. In data set [3], the “MBEC, avg., Example 4” value came out at 75 ppm. The “MBEC, ppm (first of duplicate runs), Example 4” value in data set [3] amounted to 100 ppm. For the same compound, the “MBEC, ppm (second of duplicate runs), Example 4” value in data set [3] came out at 50 ppm.

In the case of `CCCCCCCCCCCCCCCCN` [1-Hexadecylamine], the minimum biofilm eradication concentration (MBEC) in data set [2] (setting [4]), in data set [2] (setting [5]), in data set [2] (setting [6]) and in data set [2] (setting [7]) was 200 µg/mL each time.

On to `CCCCCCN` [1-Hexylamine], for which the minimum biofilm eradication concentration (MBEC) in data set [2] (setting [4]), in data set [2] (setting [5]) and in data set [2] (setting [6]) was 1600 µg/mL in each case.

With `CCCCCCCCN` [1-Octylamine], the minimum biofilm eradication concentration (MBEC) in data set [2] (setting [4]), in data set [2] (setting [5]), in data set [2] (setting [6]) and in data set [2] (setting [7]) was 400 µg/mL each time.

Turning to `CCCCCCCCCCCCCCN` [1-Tetradecylamine], the minimum biofilm eradication concentration (MBEC) in data set [2] (setting [4]), in data set [2] (setting [5]), in data set [2] (setting [6]) and in data set [2] (setting [7]) was 25 µg/mL throughout.

As to `CCCCN(C)CCCC` [CH3(C4H9)2N], the “MBEC, avg.” value in data set [2] (setting [8]) is on record as >800 ppm. In addition, in data set [2] (setting [9]), the “MBEC, ppm (first of duplicate runs)” value is recorded as >800, >800 ppm and the “MBEC, ppm (second of duplicate runs)” value is on record as >800, >800 ppm.

As to `CCCCCCN(C)CCCCCC` [CH3(C6H13)2N], the “MBEC, avg.” value in data set [2] (setting [8]) is >800 ppm. For the same compound, in data set [2] (setting [9]), the “MBEC, ppm (first of duplicate runs)” value is reported as >800, >800 ppm and the “MBEC, ppm (second of duplicate runs)” value is on record as >800, >800 ppm.

Turning to `CCCCCCCCN(C)CCCCCCCC` [CH3(C8H17)2N, Dioctylmethylamine], the minimum biofilm eradication concentration (MBEC) in data set [2] (setting [4]), in data set [2] (setting [5]), in data set [2] (setting [6]) and in data set [2] (setting [7]) was 800 µg/mL throughout.

Turning to `O=c1n(Cl)c(=O)n(Cl)c(=O)n1Cl` [Cl2 (from Trichlor), trichloroisocyanuric acid], in data set [3], the “MBEC on 7-day biofilm” value came out at 20 ppm; the “MBEC, avg., Example 4” value amounted to 20 ppm; the “MBEC, ppm (first of duplicate runs), Example 4” value is on record as 20, 20 ppm; the “MBEC, ppm (second of duplicate runs), Example 4” value was 20, 20 ppm. In data set [3] (setting [10]), the “MBEC, ppm (first of duplicate runs), Example 3” value is 5 ppm and the “MBEC, ppm (second of duplicate runs), Example 3” value was > 10 ppm.

As to `CCCCCCCCCCN(C)CCCCCCCCCC` [DAMA 1010 Amine, didecylmethylamine], the minimum biofilm eradication concentration (MBEC) in data set [2] (setting [4]), in data set [2] (setting [5]), in data set [2] (setting [6]) and in data set [2] (setting [7]) was 400 µg/mL each time.

Take `CCCCCCCCCC[N+](C)(C)CCCCCCCCCC.[Cl-]` [DAQ 1010, Didecyldimethyl ammonium chloride]: the MBC in data set [2] (read-out: MBEC, 24-hour biofilm, 1 hour contact, blends: total biocide) is ~38 µg/mL. The MBC in data set [2] (setting [11]) amounted to 50 µg/mL. The MBC in data set [2] (setting [12]) was 25 µg/mL. Moreover, in data set [3], the “MBEC on 7-day biofilm” value is reported as 75 ppm; the “MBEC, avg., Example 4” value is given as 75 ppm; the “MBEC, ppm (first of duplicate runs), Example 4” value is given as 100 ppm; the “MBEC, ppm (second of duplicate runs), Example 4” value came to 50 ppm.

Consider `CCCCNCCCC` [N,N-Dibutylamine], for which the minimum biofilm eradication concentration (MBEC) in data set [2] (setting [4]), in data set [2] (setting [5]) and in data set [2] (setting [6]) was > 1600 µg/mL each time. Also, the logKow experimental in data set [1] was 2.76.

For the compound `CCCCN(C)C` [N,N-Dimethylbutylamine], in data set [1], the logKow experimental is reported as 1.70.

Regarding `CCCCCCCCCCN(C)C` [N,N-Dimethyldecylamine], the minimum biofilm eradication concentration (MBEC) in data set [2] (setting [4]), in data set [2] (setting [5]) and in data set [2] (setting [6]) was > 400 µg/mL in each case.

`CCCCCCCCCCCCN(C)C` [N,N-Dimethyldodecylamine]: the MBC in data set [2] (setting [11]), in data set [2] (setting [13]) and in data set [2] (setting [12]) was > 200 µg/mL in each case.

In the case of `CCCCCCCCCCCCCCCCN(C)C` [N,N-Dimethylhexadecylamine], in data set [2], the “biofilm deactivation at 200 ppm (regrowth optical density measurements)” value was “evidence of biofilm deactivation”. Besides, the minimum biofilm eradication concentration (MBEC) in data set [2] (setting [4]) is > 200 µg/mL; in data set [2] (setting [5]), > 200 µg/mL; in data set [2] (setting [6]), > 200 µg/mL; in data set [2] (setting [7]), 400 to 800 µg/mL.

Consider `CCCCCCCCN(C)C` [N,N-Dimethyloctylamine], for which the minimum biofilm eradication concentration (MBEC) in data set [2] (setting [4]), in data set [2] (setting [5]) and in data set [2] (setting [6]) was > 800 µg/mL throughout.

For `CCCCCCCCCCCCCCN(C)C` [N,N-Dimethyltetradecylamine], in data set [2], the “biofilm deactivation at 200 ppm (regrowth optical density measurements)” value is recorded as “evidence of biofilm deactivation”. Further, the minimum biofilm eradication concentration (MBEC) is > 200 µg/mL in data set [2] (setting [4]), > 200 µg/mL in data set [2] (setting [5]), > 200 µg/mL in data set [2] (setting [6]) and 400 to 800 µg/mL in data set [2] (setting [7]).

For the compound `CCCCCCCCNCCCCCCCC` [N,N-Dioctylamine], the minimum biofilm eradication concentration (MBEC) in data set [2] (setting [4]), in data set [2] (setting [5]), in data set [2] (setting [6]) and in data set [2] (setting [7]) was 1600 µg/mL in each case.

For the compound `OC[P+](CO)(CO)CO.[Cl-]` [THPC, tetrakis(hydroxymethyl)phosphonium chloride, reference compound], the MBC in data set [2] (setting [11]), in data set [2] (setting [13]) and in data set [2] (setting [12]) was 100 µg/mL each time.

As to `O=CCCCC=O` [glutaraldehyde, reference compound], the minimum biofilm eradication concentration (MBEC) is 50 µg/mL in data set [2] (setting [4]), 50 µg/mL in data set [2] (setting [5]), 50 µg/mL in data set [2] (setting [6]) and 50 to 100 µg/mL in data set [2] (setting [7]). The “MBEC on 7-day biofilm” value in data set [3] was “about 200 ppm”. The “MBEC, avg., Example 3” value in data set [3] (setting [10]) is “˜200 ppm”. Moreover, the “MBEC, ppm (first of duplicate runs), Example 3” value in data set [3] (setting [10]) was found to be 100 ppm. The “MBEC, ppm (second of duplicate runs), Example 3” value in data set [3] (setting [10]) is on record as > 200 ppm.
